Laboratory results: patent publication US20180360856A1, “ANTI-BACTERIAL COMPOUNDS” (Auspherix Limited, priority 2015, published 2018)

Key:
[1] = test system: Gram negative bacteria; details: cited from earlier work
[2] = test system: human hepatocyte cell line (HepG2); details: 24 h
Description: Cell counting kit-8 (Sigma, CCK-8) assays were performed to assess the effect of compounds on cell viability. The assay is based on the reduction of a water-soluble tetrazolium salt (WST-8) by cellular dehydrogenases to a formazan dye which can be detected spectroscopically. 96-well plates were seeded with the human hepatocyte cell line (HepG2) at approximately 8×10^3 cells per well in Eagle's Minimum Essential Medium (EMEM) with Earle's salts and sodium bicarbonate supplemented with 10% heat-inactivated foetal bovine serum 2 mM glutamine and 1% non-essential amino acids (NEAA). The following day serial dilutions of compounds (dissolved and diluted in DMSO) were added to the cells in duplicates. Control wells included an ‘untreated’ control where cells were grown in the presence of 1% DMSO and a ‘medium only’ control (plus 1% DMSO). After 24 hours CCK-8 reagent (10 μl) was added to each well and cell viability was assessed by measuring the absorbance at a wavelength of 450 nm after 2-3h hours. Only living cells can reduce the tetrazolium salts into coloured formazan products. Results were expressed as 50% growth inhibition (TD50) values compared to ‘untreated’ control.

[3] = test system: S. aureus (Oxford strain); experiment: Growth assay for S. aureus (MIC); format: cell-based; details: TSB, 37° C., 22-24 hours
Description: (§1) Stock solution of the test compounds (20 mg/ml) in dimethyl sulfoxide (DMSO) were serially diluted in DMSO and each diluted compound added in duplicate to a 96-well plate to a final DMSO concentration of 2% (v/v). An overnight culture of S. aureus (Oxford strain) grown in tryptic soy broth (TSB) was diluted to approximately 5×10^7 cfu/ml and 150 μl of this sample was added to each well of the 96-well plates. Control wells included an ‘untreated’ control with bacteria in TSB in the presence of 2% DMSO and a negative sample (containing 150p1 TSB growth media in the presence of 2% DMSO). Plates were incubated in a shaking incubator at 37° C. for 22-24 hours and bacterial growth assessed by absorbance at a wavelength of 595 nm. The minimum inhibitory concentration (MIC) was defined as the lowest concentration of compound that inhibited growth compared to the no-treatment control.

[4] = test system: P.aeruginosa (ATCC 27853); experiment: Growth assay variation, P. aeruginosa (MIC); format: cell-based; details: ATCC 27853, CaMHB, incubation without shaking
Description: as §1
P.aeruginosa (ATCC 27853): use of 1/100 overnight dilution to set up assay, medium used: Cation adjusted Mueller Hinton broth (CaMHB); incubation without shaking.

[5] = test system: Klebsiella pneumoniae; experiment: Growth assay variation, Klebsiella pneumoniae (MIC); format: cell-based; details: Luria broth, incubation without shaking
Description: as §1
(§2) Klebsiella pneumoniae, Acinetobacter baumannnii or E.coli (ATCC 25922): use of 1/100 overnight dilution to set up assay, medium used: Luria broth (LB); incubation without shaking.

[6] = test system: E.coli (ATCC 25922); experiment: Growth assay variation, E. coli (MIC); format: cell-based; details: ATCC 25922, Luria broth, incubation without shaking
Description: as §1, §2

Compound | HepG2 cell TD50 [2] [µg/mL] | also measured
CC[P](CC)(CC)=[Au][S][C@@H]1O[C@H](COC(C)=O)[C@@H](OC(C)=O)[C@H](OC(C)=O)[C@H]1OC(C)=O [Auranofin] | – | activity against the majority of Gram negative bacteria [1]: not been shown to have any significant activity
Cc1nnc([S][Au]=[P](C)(C)C)n1C [Compound 1] | 2 | –
CNC(=O)C[S][Au]=[P](C)(C)C [Compound 2] | 6 | –
CCOC(=O)CNC(=O)[C@H](C[S][Au]=[P](C)(C)C)NC(=O)CC[C@H](NC(C)=O)C(=O)OCC [Compound 3] | 32 | –
C[P](C)(C)=[Au][S]c1ncco1 [Compound 4] | 4 | –
COc1ccc([S][Au]=[P](C)(C)C)cc1OC [Compound 5] | 3 | –
C[P](C)(C)=[Au][S]c1ccccc1C(=O)O [Compound 6] | 11.5 | –
C[P](C)(C)=[Au][S]c1ncc[nH]1 [Compound 7] | 6 | –
C[P](C)(C)=[Au][S]c1cccc(C(F)(F)F)c1 [Compound 8] | 3 | –
C[P](C)(C)=[Au][S]c1ccccc1C(F)(F)F [Compound 9] | 3 | –
COc1cccc([S][Au]=[P](C)(C)C)c1 [Compound 10] | 2 | –
C[P](C)(C)=[Au][S]c1ccc(S(C)(=O)=O)cc1 [Compound 11] | 2 | –
CC[P](C)(C)=[Au][S]c1ncco1 [Compound 12] | 5 | –
C[P](C)(C)=[Au][S]c1ccc(C(F)(F)F)cn1 [Compound 13] | 2.5 | –
C[P](C)(C)=[Au][S]c1cc(C(F)(F)F)ccn1 [Compound 14] | 3 | –
C[P](C)(C)=[Au][S]c1nnn[nH]1 [Compound 15] | 23 | –
C[P](C)(C)=[Au][S]c1ccc(C(N)=O)cn1 [Compound 16] | 17 | –
COc1ccc([S][Au]=[P](C)(C)C)cc1 [Compound 17] | 3.5 | –

Compound | HepG2 cell TD50 [2] [µg/mL] | also measured
C[P](C)(C)=[Au][S]c1ccc(F)cc1C(=O)O [Compound 18] | 18 | –
CC(=O)Oc1ccc([S][Au]=[P](C)(C)C)cc1OC(C)=O [Compound 23] | 2 | –
C[P](C)(C)=[Au][S]c1cccc(C(=O)O)c1 [Compound 25] | 22 | –
C[P](C)(C)=[Au][S]c1ccc(C(=O)O)cc1 [Compound 26] | 13 | –
C[P]1(=[Au][S]c2ccccc2C(=O)O)CCCCC1 [Compound 27] | 22 | –
C[P]1(=[Au][S]c2ccccc2C(=O)O)CCCC1 [Compound 28] | 11 | –
C[P]1(=[Au][S]c2ccccc2C(=O)O)CCOCC1 [Compound 29] | 35 | –
C[P]1(=[Au][S]c2ccc(F)cc2C(=O)O)CCCCC1 [Compound 30] | 19 | –
C[P]1(=[Au][S]c2nnn[nH]2)CCCCC1 [Compound 31] | 45 | –
C[P]1(=[Au][S]c2nnn[nH]2)CCCC1 [Compound 32] | 11 | –
Cn1nnnc1C[S][Au]=[P](C)(C)C [Compound 33] | 4 | –
C[P](C)(C)=[Au][S]c1cccc(S(C)(=O)=O)c1 [Compound 34] | 1 | –
C[P](C)(C)=[Au][S]C1CCC(F)(F)CC1 [Compound 35] | 4 | –
CC[P](C)(C)=[Au][S]c1ccccc1C(=O)O [Compound 36] | – | S. aureus MIC [3]: <0/8
CP1CCS(=O)(=O)CC1.[Cl][Au] [Compound I-44, 4-Methyl-[1,4]sulfonylphosphinane gold(I) chloride] | – | P. aeruginosa MIC [4]: 6.3 to 50 µg/mL; K. pneumoniae MIC [5]: 50 to 100 µg/mL; S. aureus MIC [3]: 6.3 to 25 µg/mL; E. coli MIC [6]: 25 to 100 µg/mL
Dimethyl[2-(methyl)oxazole]phosphine gold(I) chloride [Compound I-50] | – | P. aeruginosa MIC [4]: 12.5 to 25 µg/mL; K. pneumoniae MIC [5]: 12.5 to 25 µg/mL; S. aureus MIC [3]: 1.6 to 3.1 µg/mL; E. coli MIC [6]: 6.3 to 12.5 µg/mL
Dimethyl[2-(methyl)thiazole]phosphine gold(I) chloride [Compound I-49] | – | P. aeruginosa MIC [4]: 25 µg/mL; K. pneumoniae MIC [5]: 12.5 to 25 µg/mL; S. aureus MIC [3]: ≤0.8 to 1.6 µg/mL; E. coli MIC [6]: 6.3 to 12.5 µg/mL
